The results in this text go back to ChEMBL document CHEMBL5036361, “Structurally Diverse Sesquiterpenoid Glycoside Esters from Pittosporum qinlingense with Anti-neuroinflammatory Activity” (J Nat Prod, 2022).

Structures are written as SMILES. The source made the active and inactive calls. The calls are words filed in the database; no cut-off is given here.

Data set [1] has as its system BV-2. Description: Antineuroinflammatory activity against mouse BV-2 cells assessed as inhibition of LPS-induced NO production incubated for 24 hrs by Griess assay. Format: functional, cell-based. As to conditions: BV-2, 24 h. On the technique in general: The Griess reaction detects nitrite, a stable product of nitric oxide.
Data set [2] has as its system BV-2. The data set is described as follows: Cytotoxicity against mouse BV-2 cells at 6.25 to 100 uM after 24 hrs by MTT assay. The format is cell-based. To be noted: bv-2, 24 h, dose 6.25-100 µM.
The test system of data set [3] is BV-2. Description: Downregulation of LPS-induced COX-2 expression in mouse BV-2 cells at 1.25 to 10 uM preincubated for 1 hr followed by LPS stimulation for 24 hrs by western blot analysis. Format: functional, cell-based. To be noted: dose 1.25-10 µM. Background: In western blotting, separated proteins are transferred to a membrane and probed.
Data set [4] has as its system BV-2. The data set is described as follows: Downregulation of LPS-induced iNOS expression in mouse BV-2 cells at 1.25 to 10 uM preincubated for 1 hr followed by LPS stimulation for 24 hrs by western blot analysis. Format: functional, cell-based. To be noted: dose 1.25-10 µM.

Broadly, the IC50 is the concentration that gives 50% inhibition.

For the molecule `C=C1C[C@H](O[C@@H]2O[C@H](C)[C@H](O)[C@H](O)[C@H]2OC(C)=O)[C@H]2[C@@H]([C@H]3[C@@H]1CC[C@]3(C)O)C2(C)C`, the IC50 in the data set with BV-2 [1] is over 50 µM. Also, the Activity result in the data set with BV-2 [2] was “Non-Toxic”.

As for `C=C1CC[C@@H](O)[C@]2(C)CC[C@@H](C(C)(C)O[C@@H]3O[C@H](C)[C@H](O)[C@H](OC(=O)/C(C)=C/C)[C@H]3OC(C)=O)[C@H](OC)[C@@H]12`, the IC50 in the data set with BV-2 [1] was over 50 µM. Moreover, the Activity result with BV-2 [2] is “Non-Toxic”.

Regarding `O=c1c(O)c(-c2ccc(O)c(O)c2)oc2cc(O)cc(O)c12` [QUERCETIN], the IC50 in the data set with BV-2 [1] was 2.45 µM.

`C/C=C(/C)C(=O)O[C@@H]1[C@@H](OC(C)=O)[C@H](O[C@]2(C)CC[C@@H]3[C@H]([C@@H]4[C@H](C)CC[C@@H]42)C3(C)C)OC[C@H]1O`: the IC50 in the data set with BV-2 [1] was determined as 24.1 µM. Also, the Activity entry in the data set on BV-2 [2] was “Non-Toxic”.

Take `C=C1C[C@H](O[C@@H]2O[C@H](C)[C@H](O)[C@H](OC(=O)/C(C)=C/C)[C@H]2OC(C)=O)[C@H]2[C@@H]([C@H]3[C@@H]1CC[C@]3(C)O)C2(C)C`: the IC50 with BV-2 [1] was over 50 µM. For the same molecule, in the data set on BV-2 [2], the Activity entry was “Non-Toxic”.

Take `C=C1C[C@@H](O[C@@H]2O[C@H](C)[C@H](O)[C@H](OC(=O)/C(C)=C/C)[C@H]2OC(C)=O)[C@@H](C(C)C)[C@@H]2C=C(C)CC[C@@H]12`: the IC50 in the data set with BV-2 [1] was over 50 µM. Further, the Activity entry in the data set with BV-2 [2] is on record as “Non-Toxic”.

As for `CC(=O)O[C@@H]1[C@H](OC(=O)C=C(C)C)[C@@H](OC(C)=O)[C@H](O[C@@]2(C)CC[C@@H]3[C@H]([C@@H]4[C@H](C)CC[C@@H]42)C3(C)C)O[C@@H]1C`, the IC50 in the data set on BV-2 [1] was determined as 0.95 µM. For the same molecule, the Activity result in the data set with BV-2 [2] is reported as “Non-Toxic”. For the same molecule, the result with BV-2 [3] and with BV-2 [4] was Active.

In the case of `C/C=C(/C)C(=O)O[C@H]1[C@H](O)[C@@H](OC(C)=O)[C@H](O[C@]2(C)CC[C@@H]3[C@H]([C@@H]4[C@H](C)CC[C@@H]42)C3(C)C)O[C@@H]1CO`, the IC50 in the data set on BV-2 [1] came to 21.5 µM. For the same molecule, the Activity entry in the data set with BV-2 [2] is recorded as “Non-Toxic”.

For `CC(C)[C@@H]1CC[C@@]2(C)[C@H](O)CC[C@](C)(O)[C@@H]2[C@H]1O`, the concentration for half-maximal inhibition (IC50) in the data set on BV-2 [1] was over 50 µM. Also, the Activity entry in the data set on BV-2 [2] is on record as “Non-Toxic”.

Regarding `CC(=O)O[C@H]1[C@H](O[C@]2(C)CC[C@@H]3[C@H]([C@@H]4[C@H](C)CC[C@@H]42)C3(C)C)O[C@H](C)[C@H](O)[C@@H]1OC(=O)/C=C(/C)CO`, in the data set on BV-2 [1], the concentration for half-maximal inhibition (IC50) was found to be 17.6 µM. Further, the Activity result in the data set on BV-2 [2] is listed as “Non-Toxic”.

Regarding `CCC(C)C(=O)O[C@H]1[C@@H](O)[C@@H](C)O[C@@H](O[C@]2(C)CC[C@@H]3[C@H]([C@@H]4[C@H](C)CC[C@@H]42)C3(C)C)[C@@H]1OC(C)=O` (some centres not stated), the IC50 with BV-2 [1] is over 50 µM. The Activity entry with BV-2 [2] is given as “Non-Toxic”.

On to `C[C@@H]1CC[C@H]2[C@@H]1[C@H]1[C@@H](CC[C@@]2(C)O[C@@H]2O[C@H](C)[C@H](O)[C@H](O)[C@H]2O)C1(C)C`, for which the IC50 in the data set with BV-2 [1] was over 50 µM. Also, the Activity entry in the data set on BV-2 [2] is recorded as “Non-Toxic”.

For `CC1(C)[C@H]2[C@H]3[C@@H](CC[C@@]3(C)O)[C@](C)(O)CC[C@H]21`, the IC50 in the data set with BV-2 [1] is over 50 µM. In addition, the Activity result in the data set with BV-2 [2] is on record as “Non-Toxic”.

For the molecule `C/C=C(/C)C(=O)O[C@H]1[C@@H](OC(C)=O)[C@@H](C)O[C@@H](O[C@]2(C)CC[C@@H]3[C@H]([C@@H]4[C@H](C)CC[C@@H]42)C3(C)C)[C@@H]1OC(C)=O`, in the data set with BV-2 [1], the IC50 was determined as 0.97 µM. The Activity entry in the data set with BV-2 [2] is reported as “Non-Toxic”. In addition, the outcome with BV-2 [3] was Active. For the same molecule, the outcome in the data set with BV-2 [4] was inactive.

In the case of `CC(=O)O[C@H]1[C@H](O[C@@]2(C)CC[C@@H]3[C@H]([C@@H]4[C@H](C)CC[C@@H]42)C3(C)C)O[C@H](C)[C@H](O)[C@@H]1OC(=O)C=C(C)C`, the IC50 with BV-2 [1] came to 4.95 µM. Besides, the Activity entry in the data set with BV-2 [2] was “Non-Toxic”. The outcome with BV-2 [3] and with BV-2 [4] was Active.

Consider `CC(=O)O[C@H]1[C@H](O[C@]2(C)CC[C@@H]3[C@H]([C@@H]4[C@H](C)CC[C@@H]42)C3(C)C)O[C@H](CO)[C@@H](O)[C@@H]1O`, for which, in the data set with BV-2 [1], the IC50 is over 50 µM. In addition, in the data set on BV-2 [2], the Activity result is “Non-Toxic”.

Regarding `C[C@@H]1CC[C@H]2[C@@H]1[C@H]1[C@@H](CC[C@@]2(C)O)C1(C)C`, the concentration for half-maximal inhibition (IC50) in the data set on BV-2 [1] was over 50 µM. Further, the Activity result with BV-2 [2] was “Non-Toxic”.

In the case of `C/C=C(/C)C(=O)O[C@H]1[C@@H](O)[C@@H](C)O[C@@H](O[C@]2(C)CC[C@@H]3[C@H]([C@@H]4[C@H](C)CC[C@@H]42)C3(C)C)[C@@H]1OC(C)=O`, in the data set with BV-2 [1], the IC50 came to 1.43 µM. Besides, the Activity result in the data set with BV-2 [2] was “Non-Toxic”.

For the molecule `C/C=C(/C)C(=O)O[C@H]1[C@H](O)[C@@H](CO)O[C@@H](O[C@]2(C)CC[C@@H]3[C@H]([C@@H]4[C@H](C)CC[C@@H]42)C3(C)C)[C@@H]1OC(C)=O`, the IC50 in the data set with BV-2 [1] worked out at 6.27 µM. Further, the Activity result with BV-2 [2] was “Non-Toxic”. Besides, the result in the data set with BV-2 [3] and in the data set with BV-2 [4] was Active.

On to `C/C=C(\C)C(=O)O[C@H]1[C@@H](O)[C@@H](C)O[C@@H](O[C@H]2C[C@@](C)(O)[C@H]3CC[C@](C)(O)[C@H]3[C@H]3[C@@H]2C3(C)C)[C@@H]1OC(C)=O`, for which the IC50 in the data set on BV-2 [1] was over 50 µM. Besides, the Activity result in the data set with BV-2 [2] was “Non-Toxic”.
